# Measured values reported in the kinase profiling compilation of Christmann-Franck et al. (2016).
# Legend:
# Test in all cases: KINOMEscan competition binding
# Settings in all cases: compound 10.0 µM
# [1] = tested on: ABL1 (human), P00519 [E255K]
# [2] = biological target: NEK4 (human) (UniProt P51957)
# [3] = biological target: MET (human) (UniProt P08581)
# [4] = biological target: TRPM6 (human) (UniProt Q9BX84)
# [5] = biological target: CDK13 (human) (UniProt Q14004)
# [6] = biological target: PIP5K1C (human) (UniProt O60331)
# [7] = biological target: STK39 (human) (UniProt Q9UEW8)
# [8] = tested on: KIT (human), P10721 [V559D/T670I]
# [9] = biological target: EGFR (human) (UniProt P00533)
# [10] = biological target: HUNK (human) (UniProt P57058)
# [11] = biological target: IRAK4 (human) (UniProt Q9NWZ3)
# [12] = tested on: FLT3 (human), P36888 [K663Q]
# [13] = biological target: PI4KB (human) (UniProt Q9UBF8)
# [14] = biological target: MAK (human) (UniProt P20794)
# [15] = biological target: CSNK1A1 (human) (UniProt P48729)
# [16] = biological target: SBK1 (human) (UniProt Q52WX2)
# [17] = biological target: CDK2 (human) (UniProt P24941)
# [18] = biological target: MAP3K15 (human) (UniProt Q6ZN16)
# [19] = biological target: HIPK4 (human) (UniProt Q8NE63)
# [20] = biological target: CDK4 CCND1 (human) (UniProt P11802+P24385)
# [21] = biological target: SGK3 (human) (UniProt Q96BR1)
# [22] = biological target: PIP4K2C (human) (UniProt Q8TBX8)
# [23] = biological target: YSK4 (human) (UniProt Q56UN5)
# [24] = biological target: MAP3K13 (human) (UniProt O43283)
# [25] = tested on: EGFR (human), P00533 [746-750 del]
# [26] = biological target: CASK (human) (UniProt O14936)
# [27] = biological target: MAP3K2 (human) (UniProt Q9Y2U5)
# [28] = biological target: MTOR (human) (UniProt P42345)
# [29] = biological target: EPHB6 (human) (UniProt O15197)
# [30] = biological target: NEK11 (human) (UniProt Q8NG66)
# [31] = biological target: ROCK1 (human) (UniProt Q13464)
# [32] = tested on: EGFR (human), P00533 [P753S; 747-752 del]
# [33] = biological target: MYLK3 (human) (UniProt Q32MK0)
# [34] = biological target: CDKL5 (human) (UniProt O76039)
# [35] = biological target: ERN1 (human) (UniProt O75460)
# [36] = biological target: RPS6KB1 (human) (UniProt P23443)
# [37] = biological target: STK32A (human) (UniProt Q8WU08)
# [38] = biological target: ERBB3 (human) (UniProt P21860)
# [39] = tested on: PIK3CA (human), P42336 [Q546K]
# [40] = tested on: PIK3CA (human), P42336 [E545A]
# Sequence of ERN1 (human) (O75460 whole entry, looked up): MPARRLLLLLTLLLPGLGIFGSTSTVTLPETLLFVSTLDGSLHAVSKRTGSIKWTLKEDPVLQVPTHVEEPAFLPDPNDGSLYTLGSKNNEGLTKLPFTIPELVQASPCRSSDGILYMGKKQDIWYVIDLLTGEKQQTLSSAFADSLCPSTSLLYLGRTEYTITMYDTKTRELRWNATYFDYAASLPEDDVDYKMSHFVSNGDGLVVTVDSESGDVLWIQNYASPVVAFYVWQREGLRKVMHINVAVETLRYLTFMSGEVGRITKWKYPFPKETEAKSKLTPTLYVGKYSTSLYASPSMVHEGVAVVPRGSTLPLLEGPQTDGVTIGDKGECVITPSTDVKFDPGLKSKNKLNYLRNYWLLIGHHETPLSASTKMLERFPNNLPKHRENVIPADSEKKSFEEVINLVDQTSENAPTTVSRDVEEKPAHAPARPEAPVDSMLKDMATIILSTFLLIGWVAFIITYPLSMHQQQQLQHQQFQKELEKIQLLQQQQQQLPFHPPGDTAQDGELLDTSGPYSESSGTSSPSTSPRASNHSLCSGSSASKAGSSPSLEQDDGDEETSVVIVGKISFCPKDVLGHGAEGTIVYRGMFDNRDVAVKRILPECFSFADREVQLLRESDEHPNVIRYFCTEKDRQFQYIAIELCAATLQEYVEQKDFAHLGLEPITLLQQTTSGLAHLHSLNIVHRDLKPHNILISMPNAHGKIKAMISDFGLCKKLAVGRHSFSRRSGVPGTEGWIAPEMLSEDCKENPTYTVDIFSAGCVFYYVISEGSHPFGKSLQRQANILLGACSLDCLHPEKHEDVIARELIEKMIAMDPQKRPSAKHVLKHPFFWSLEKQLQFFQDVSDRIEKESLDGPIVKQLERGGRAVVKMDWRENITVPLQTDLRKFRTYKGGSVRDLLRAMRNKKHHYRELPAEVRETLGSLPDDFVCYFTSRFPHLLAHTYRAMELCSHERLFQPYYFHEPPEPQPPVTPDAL
# Sequence of HIPK4 (human) (Q8NE63 whole entry, looked up): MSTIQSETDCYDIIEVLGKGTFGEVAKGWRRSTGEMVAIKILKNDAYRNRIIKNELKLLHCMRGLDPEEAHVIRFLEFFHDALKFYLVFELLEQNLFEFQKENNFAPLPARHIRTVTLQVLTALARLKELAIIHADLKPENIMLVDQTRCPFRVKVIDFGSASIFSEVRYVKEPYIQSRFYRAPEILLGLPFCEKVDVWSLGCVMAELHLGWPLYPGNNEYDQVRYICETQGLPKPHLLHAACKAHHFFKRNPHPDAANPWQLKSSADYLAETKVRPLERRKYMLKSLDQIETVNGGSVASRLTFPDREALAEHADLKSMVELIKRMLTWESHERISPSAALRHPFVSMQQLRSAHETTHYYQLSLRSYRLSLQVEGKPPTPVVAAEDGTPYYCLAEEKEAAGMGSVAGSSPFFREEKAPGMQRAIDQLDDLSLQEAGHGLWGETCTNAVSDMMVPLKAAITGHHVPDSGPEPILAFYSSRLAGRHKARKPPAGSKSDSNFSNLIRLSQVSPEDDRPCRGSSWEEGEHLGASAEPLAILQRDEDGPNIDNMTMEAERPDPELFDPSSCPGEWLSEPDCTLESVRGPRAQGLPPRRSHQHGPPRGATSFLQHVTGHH
# Sequence of ROCK1 (human) (Q13464 whole entry, looked up): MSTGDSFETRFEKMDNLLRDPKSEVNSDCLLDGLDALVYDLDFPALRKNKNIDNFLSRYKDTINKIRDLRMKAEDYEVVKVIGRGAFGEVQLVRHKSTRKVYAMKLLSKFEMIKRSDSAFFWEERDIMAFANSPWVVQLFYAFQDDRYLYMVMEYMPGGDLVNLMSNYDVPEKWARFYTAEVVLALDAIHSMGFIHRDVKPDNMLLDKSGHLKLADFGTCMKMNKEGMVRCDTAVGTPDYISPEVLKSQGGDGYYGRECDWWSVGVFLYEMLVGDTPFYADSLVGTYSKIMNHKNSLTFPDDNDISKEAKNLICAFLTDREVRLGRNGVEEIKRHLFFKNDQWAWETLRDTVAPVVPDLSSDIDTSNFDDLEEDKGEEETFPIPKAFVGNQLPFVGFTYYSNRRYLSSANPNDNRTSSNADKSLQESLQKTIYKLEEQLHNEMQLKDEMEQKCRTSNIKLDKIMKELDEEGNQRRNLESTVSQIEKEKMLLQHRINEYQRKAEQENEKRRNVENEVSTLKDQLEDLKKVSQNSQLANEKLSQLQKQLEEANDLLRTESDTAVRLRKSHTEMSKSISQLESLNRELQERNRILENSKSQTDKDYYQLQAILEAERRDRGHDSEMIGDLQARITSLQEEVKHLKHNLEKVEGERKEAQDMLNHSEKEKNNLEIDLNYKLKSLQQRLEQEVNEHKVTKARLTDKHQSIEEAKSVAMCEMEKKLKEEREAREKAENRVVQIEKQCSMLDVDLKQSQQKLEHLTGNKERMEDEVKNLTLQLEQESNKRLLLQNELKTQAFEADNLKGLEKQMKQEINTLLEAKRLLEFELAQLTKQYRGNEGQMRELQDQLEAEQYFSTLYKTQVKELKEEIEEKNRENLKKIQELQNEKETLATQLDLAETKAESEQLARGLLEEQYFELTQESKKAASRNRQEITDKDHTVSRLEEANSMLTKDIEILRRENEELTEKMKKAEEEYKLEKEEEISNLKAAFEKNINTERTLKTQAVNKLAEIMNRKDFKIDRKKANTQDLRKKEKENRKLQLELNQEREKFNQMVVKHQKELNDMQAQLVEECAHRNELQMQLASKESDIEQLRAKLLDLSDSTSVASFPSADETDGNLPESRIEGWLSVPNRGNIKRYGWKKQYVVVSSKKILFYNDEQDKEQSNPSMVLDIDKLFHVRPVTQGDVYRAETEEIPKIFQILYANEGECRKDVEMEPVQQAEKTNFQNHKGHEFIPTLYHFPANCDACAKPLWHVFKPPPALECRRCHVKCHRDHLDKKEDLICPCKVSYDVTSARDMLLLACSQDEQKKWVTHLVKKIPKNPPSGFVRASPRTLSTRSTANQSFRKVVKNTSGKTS
# Sequence of CDK13 (human) (Q14004 whole entry, looked up): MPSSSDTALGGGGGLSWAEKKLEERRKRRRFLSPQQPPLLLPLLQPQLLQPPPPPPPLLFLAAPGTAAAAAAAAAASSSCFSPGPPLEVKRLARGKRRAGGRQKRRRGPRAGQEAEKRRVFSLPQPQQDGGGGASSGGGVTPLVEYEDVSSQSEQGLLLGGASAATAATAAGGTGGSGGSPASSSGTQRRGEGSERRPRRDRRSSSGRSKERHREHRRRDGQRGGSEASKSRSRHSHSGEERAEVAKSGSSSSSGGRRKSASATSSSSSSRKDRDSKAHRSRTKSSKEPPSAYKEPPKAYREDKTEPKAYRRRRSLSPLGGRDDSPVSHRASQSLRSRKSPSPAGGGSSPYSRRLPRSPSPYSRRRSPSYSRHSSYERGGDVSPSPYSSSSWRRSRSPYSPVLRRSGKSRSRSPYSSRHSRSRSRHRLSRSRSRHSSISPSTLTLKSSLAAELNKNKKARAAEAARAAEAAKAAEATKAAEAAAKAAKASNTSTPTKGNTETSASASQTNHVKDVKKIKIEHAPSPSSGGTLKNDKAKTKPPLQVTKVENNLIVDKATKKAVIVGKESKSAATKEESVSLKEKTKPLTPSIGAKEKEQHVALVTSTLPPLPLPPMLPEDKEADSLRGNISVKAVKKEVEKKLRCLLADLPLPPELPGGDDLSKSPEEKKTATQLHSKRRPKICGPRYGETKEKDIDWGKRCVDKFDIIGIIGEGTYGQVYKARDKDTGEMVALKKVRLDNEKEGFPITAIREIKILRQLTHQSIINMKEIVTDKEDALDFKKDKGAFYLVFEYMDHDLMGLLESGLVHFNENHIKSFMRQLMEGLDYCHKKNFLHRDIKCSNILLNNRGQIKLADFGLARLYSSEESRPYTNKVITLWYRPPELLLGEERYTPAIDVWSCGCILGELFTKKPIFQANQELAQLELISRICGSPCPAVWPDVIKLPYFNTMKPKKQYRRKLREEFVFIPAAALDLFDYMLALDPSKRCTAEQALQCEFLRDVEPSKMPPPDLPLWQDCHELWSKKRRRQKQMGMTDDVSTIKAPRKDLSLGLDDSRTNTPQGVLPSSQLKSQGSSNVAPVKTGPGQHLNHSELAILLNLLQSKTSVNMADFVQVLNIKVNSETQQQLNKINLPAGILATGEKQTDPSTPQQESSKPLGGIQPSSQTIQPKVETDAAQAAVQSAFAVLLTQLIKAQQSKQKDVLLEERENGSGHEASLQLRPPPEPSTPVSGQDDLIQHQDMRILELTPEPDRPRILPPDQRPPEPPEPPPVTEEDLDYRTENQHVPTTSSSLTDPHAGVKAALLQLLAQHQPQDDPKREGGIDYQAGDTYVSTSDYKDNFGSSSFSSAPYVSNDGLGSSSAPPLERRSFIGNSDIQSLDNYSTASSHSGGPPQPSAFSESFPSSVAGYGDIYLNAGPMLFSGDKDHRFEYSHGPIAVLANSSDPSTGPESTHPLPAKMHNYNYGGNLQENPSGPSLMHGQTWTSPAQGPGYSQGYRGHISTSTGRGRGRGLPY
# Sequence of MAK (human) (P20794 whole entry, looked up): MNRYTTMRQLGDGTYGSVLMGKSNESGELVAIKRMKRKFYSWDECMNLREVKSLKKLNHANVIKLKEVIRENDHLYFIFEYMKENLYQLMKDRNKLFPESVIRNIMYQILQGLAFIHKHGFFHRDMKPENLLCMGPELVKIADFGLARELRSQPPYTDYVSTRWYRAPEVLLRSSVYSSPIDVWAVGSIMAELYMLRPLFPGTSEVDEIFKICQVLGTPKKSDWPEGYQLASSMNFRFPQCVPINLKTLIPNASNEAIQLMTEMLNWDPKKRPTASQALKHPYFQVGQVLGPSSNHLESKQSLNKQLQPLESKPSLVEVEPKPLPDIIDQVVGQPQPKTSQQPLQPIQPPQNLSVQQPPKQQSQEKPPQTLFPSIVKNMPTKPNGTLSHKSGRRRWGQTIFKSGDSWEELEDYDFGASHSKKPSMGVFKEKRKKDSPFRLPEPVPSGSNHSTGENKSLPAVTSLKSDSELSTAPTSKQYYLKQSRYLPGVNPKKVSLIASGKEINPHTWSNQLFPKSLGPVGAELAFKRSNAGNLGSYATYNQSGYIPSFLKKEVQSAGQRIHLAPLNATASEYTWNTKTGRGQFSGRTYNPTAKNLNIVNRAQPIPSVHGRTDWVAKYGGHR
Structure (SMILES),"kinase still bound, per cent of control [1]","kinase still bound, per cent of control [2]","kinase still bound, per cent of control [4]","kinase still bound, per cent of control [5]","kinase still bound, per cent of control [6]","kinase still bound, per cent of control [7]","kinase still bound, per cent of control [8]","kinase still bound, per cent of control [10]","kinase still bound, per cent of control [11]","kinase still bound, per cent of control [13]","kinase still bound, per cent of control [14]","kinase still bound, per cent of control [15]","kinase still bound, per cent of control [16]","kinase still bound, per cent of control [18]","kinase still bound, per cent of control [19]","kinase still bound, per cent of control [20]","kinase still bound, per cent of control [21]","kinase still bound, per cent of control [22]","kinase still bound, per cent of control [23]","kinase still bound, per cent of control [24]",further results
Cc1cc([C@@H](C)Nc2ccccc2C(=O)O)c2nc(N3CCOCC3)cc(=O)n2c1,94%,61%,100%,88%,63%,100%,91%,81%,100%,100%,67%,63%,100%,87%,100%,100%,86%,58%,100%,100%,"kinase still bound, per cent of control [3]: 86%; kinase still bound, per cent of control [9]: 96%; kinase still bound, per cent of control [12]: 13%; kinase still bound, per cent of control [17]: 93%; kinase still bound, per cent of control [25]: 100%; kinase still bound, per cent of control [26]: 92%; kinase still bound, per cent of control [27]: 100%; kinase still bound, per cent of control [28]: 11%; kinase still bound, per cent of control [29]: 41%; kinase still bound, per cent of control [30]: 100%; kinase still bound, per cent of control [31]: 73%; kinase still bound, per cent of control [32]: 100%; kinase still bound, per cent of control [33]: 100%; kinase still bound, per cent of control [34]: 74%; kinase still bound, per cent of control [35]: 91%; kinase still bound, per cent of control [36]: 72%; kinase still bound, per cent of control [37]: 89%; kinase still bound, per cent of control [38]: 100%"
O=C(NOC[C@H](O)CO)c1ccc(F)c(F)c1Nc1ccc(I)cc1F,100%,78%,100%,84%,100%,96%,90%,100%,100%,100%,100%,100%,100%,100%,100%,93%,89%,100%,100%,86%,"kinase still bound, per cent of control [39]: 41%; kinase still bound, per cent of control [40]: 45%; kinase still bound, per cent of control [17]: 91%; kinase still bound, per cent of control [26]: 67%; kinase still bound, per cent of control [27]: 100%; kinase still bound, per cent of control [28]: 100%; kinase still bound, per cent of control [29]: 87%; kinase still bound, per cent of control [30]: 91%; kinase still bound, per cent of control [31]: 100%; kinase still bound, per cent of control [32]: 59%; kinase still bound, per cent of control [34]: 67%; kinase still bound, per cent of control [35]: 97%; kinase still bound, per cent of control [36]: 100%; kinase still bound, per cent of control [37]: 80%; kinase still bound, per cent of control [38]: 100%"
Cc1ccc2nc(NCCN)c3ncc(C)n3c2c1,87%,100%,87%,4.7%,92%,100%,39%,100%,100%,100%,100%,68%,100%,100%,41%,58%,100%,100%,16%,74%,"kinase still bound, per cent of control [3]: 100%; kinase still bound, per cent of control [39]: 38%; kinase still bound, per cent of control [9]: 100%; kinase still bound, per cent of control [40]: 31%; kinase still bound, per cent of control [12]: 92%; kinase still bound, per cent of control [25]: 100%; kinase still bound, per cent of control [26]: 100%; kinase still bound, per cent of control [27]: 100%; kinase still bound, per cent of control [28]: 87%; kinase still bound, per cent of control [29]: 44%; kinase still bound, per cent of control [30]: 100%; kinase still bound, per cent of control [31]: 100%; kinase still bound, per cent of control [32]: 100%; kinase still bound, per cent of control [34]: 46%; kinase still bound, per cent of control [35]: 88%; kinase still bound, per cent of control [36]: 96%; kinase still bound, per cent of control [37]: 100%; kinase still bound, per cent of control [38]: 83%"
N#Cc1c(NC(=O)c2cccc3ccccc23)sc2c1CCCC2,100%,76%,100%,87%,100%,100%,78%,95%,100%,100%,56%,100%,100%,100%,100%,100%,92%,100%,100%,83%,"kinase still bound, per cent of control [3]: 66%; kinase still bound, per cent of control [39]: 79%; kinase still bound, per cent of control [40]: 80%; kinase still bound, per cent of control [12]: 93%; kinase still bound, per cent of control [17]: 95%; kinase still bound, per cent of control [26]: 71%; kinase still bound, per cent of control [27]: 100%; kinase still bound, per cent of control [28]: 100%; kinase still bound, per cent of control [29]: 85%; kinase still bound, per cent of control [30]: 100%; kinase still bound, per cent of control [31]: 100%; kinase still bound, per cent of control [33]: 100%; kinase still bound, per cent of control [34]: 70%; kinase still bound, per cent of control [35]: 90%; kinase still bound, per cent of control [36]: 90%; kinase still bound, per cent of control [37]: 81%; kinase still bound, per cent of control [38]: 100%"
